Patent US11466019B2, “Triazolo[4,5-d] pyramidine derivatives and their use as purine receptor antagonists” (Vernalis (R&D) Limited, priority 2008, dated 2022)

Tests used:
[1] = target: T1, human adenosine A3 receptors (Homo sapiens, UniProt P0DMS8); assay: Adenosine receptor binding: binding affinities at hA3 receptors ([125I]-AB MECA displacement); conditions: Table 1; for Ki: [125I]-AB MECA displacement, CHO-K1 membranes, read-out: Binding Affinity hA3-Ki; for Binding Selectivity A3/A2a: ratio of Ki values
T1 construct: expressed in transfected cells; host or cells: CHO-K1
T1 sequence (P0DMS8 1-318): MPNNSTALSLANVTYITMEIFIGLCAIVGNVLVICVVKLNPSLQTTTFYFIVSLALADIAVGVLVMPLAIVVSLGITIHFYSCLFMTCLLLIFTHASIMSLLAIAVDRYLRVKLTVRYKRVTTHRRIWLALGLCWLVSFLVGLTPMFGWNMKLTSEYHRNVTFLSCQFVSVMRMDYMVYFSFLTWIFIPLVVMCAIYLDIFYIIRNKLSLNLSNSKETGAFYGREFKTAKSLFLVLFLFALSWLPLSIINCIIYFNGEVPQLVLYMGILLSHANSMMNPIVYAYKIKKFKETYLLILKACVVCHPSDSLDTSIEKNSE
Protocol: [formula] Adenosine Receptor Binding: Binding Affinities at hA3 Receptors
The resultant homogenate was kept for immediate use in the binding assay.
(§1) Total binding was determined using drug dilution buffer (50 mM Tris-HCl pH 7.5, 10 mM MgCl2, 5% DMSO). Non-specific binding was determined using 10 μM IB-MECA. […] Filters were left to dry overnight, and Microscint-0 scintillation fluid was then added to the filters. The filters were then left for at least 2 hours before the radioactivity was assessed using a Canberra Packard TopCount microplate scintillation counter.
(§2) Data was analysed using a 4 parameter logistical equation and non-linear regression which yields affinity constants (pIC50), and slope parameters:
(§3) [formula] where E is the quantity of binding and [A] is the competitor concentration. The Ki is then determined using the Cheng-Prusoff equation: […]

hA2B receptors = target: T2, hA2B receptors (Homo sapiens, UniProt P29275); assay: Adenosine receptor binding: binding affinities at hA2B receptors ([3H]-ZM241385 displacement); conditions: Table 1; for Ki: [3H]-ZM241385 displacement, HEK-293 membranes, read-out: Binding Affinity hA2B-Ki; for Binding Selectivity A2b/A2a: ratio of Ki values
T2 construct: host or cells: HEK-293
T2 sequence (P29275 1-332): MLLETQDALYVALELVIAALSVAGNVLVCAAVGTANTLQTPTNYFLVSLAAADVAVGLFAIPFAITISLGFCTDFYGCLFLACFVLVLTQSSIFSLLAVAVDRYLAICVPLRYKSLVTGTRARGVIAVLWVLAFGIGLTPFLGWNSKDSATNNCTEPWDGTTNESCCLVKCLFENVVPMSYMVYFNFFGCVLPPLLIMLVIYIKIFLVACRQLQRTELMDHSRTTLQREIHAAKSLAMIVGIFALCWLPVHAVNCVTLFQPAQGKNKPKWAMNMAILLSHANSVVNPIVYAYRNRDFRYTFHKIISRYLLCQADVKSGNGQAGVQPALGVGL

[2] = target: T3, human adenosine A1 receptors (Homo sapiens, UniProt P30542); assay: Adenosine receptor binding: binding affinities at hA1 receptors ([3H]DPCPX displacement); conditions: Table 1; for Ki: [3H]DPCPX displacement, CHO-K1 membranes, read-out: Binding Affinity hA1-Ki; for Binding Selectivity A1/A2a: ratio of Ki values
T3 construct: expressed in transfected cells; host or cells: CHO-K1
T3 sequence (P30542 1-326): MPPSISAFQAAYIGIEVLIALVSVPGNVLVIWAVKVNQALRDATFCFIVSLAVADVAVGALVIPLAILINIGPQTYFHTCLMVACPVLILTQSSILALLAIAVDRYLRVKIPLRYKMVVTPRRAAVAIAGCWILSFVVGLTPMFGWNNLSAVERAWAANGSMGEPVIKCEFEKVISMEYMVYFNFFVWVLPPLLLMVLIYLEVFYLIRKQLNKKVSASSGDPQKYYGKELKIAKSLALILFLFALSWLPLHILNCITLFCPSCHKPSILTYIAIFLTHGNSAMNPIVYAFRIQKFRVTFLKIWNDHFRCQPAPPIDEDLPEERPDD
Protocol: Adenosine Receptor Binding: Binding Affinities at hA1 Receptors
The resultant homogenate was kept for immediate use in the binding.
as §1, with “Binding assays were performed in a total volume of 250 μL, containing [^3H]-DPCPX (3.0 nM), membranes and additional drugs. Total” for “Total”, “Tris-HCl pH:7.5,” for “Tris-HCl pH 7.5,”, “using 300” for “using 10”, “μM N6-cyclohexyladenosine (CHA).” for “μM IB-MECA.”
To determine the free ligand concentration, three vials were counted with 25 μL of [^3H]DPCPX containing 4 mL of Ultima-Gold MV scintillant on a Beckman LS6500 multi-purpose scintillation counter.
as §2, §3

[3] = system: haloperidol-induced deficits in locomotor activity in mice; assay: Haloperidol-induced hypolocomotion model (HaloLMA); assay type: in vivo; conditions: female TO mice, intraperitoneal, haloperidol 0.2 mg/kg
Excerpt: Evaluation of Potential Anti-Parkinsonian Activity In Vivo: Haloperidol-Induced Hypolocomotion Model
This approach is also considered a valid method for screening drugs with potential antiparkinsonian effects. Thus, the ability of novel adenosine antagonists to block haloperidol-induced deficits in locomotor activity in mice can be used to assess both in vivo and potential antiparkinsonian efficacy.
Female TO mice (25-30 g) are used for all experiments. Animals are housed in groups of 8 (cage size-40 cm (width) by 40 cm (length) by 20 cm (height)) under 12 hour light/dark cycle (lights on 08:00), in a temperature (20±2° C.) and humidity (55±15%) controlled environment. Animals have free access to food and water, and are allowed at least 7 days to acclimatize after delivery before experimental use.
Liquid injectable haloperidol (e.g., 1 mL Serenance ampoules from Baker Norton, Harlow, Essex, each containing haloperidol BP 5 mg) are diluted to a final concentration of 0.02 mg/mL using saline. Test compounds are typically prepared as aqueous suspensions in 8% Tween. All compounds are administered intraperitoneally in a volume of 10 mL/kg.
1.5 hours before testing, mice are administered 0.2 mg/kg haloperidol, a dose that reduces baseline locomotor activity by at least 50%. Test substances are typically administered 5-60 minutes prior to testing. The animals are then placed individually into clean, clear polycarbonate cages (20 cm (width) by 40 cm (length) by 20 cm (height), with a flat perforated, Perspex lid). Horizontal locomotor activity is determined by placing the cages within a frame containing a 3 by 6 array of photocells linked to a computer, which tabulates beam breaks. Mice are left undisturbed to explore for 1 hour, and the number of beams breaks made during this period serves as a record of locomotor activity which is compared with data for control animals for statistically significant differences.
A number of the exemplified compounds of the present invention were tested in this assay and the results obtained are shown in Table 3, below.

[4] = target: T4, human adenosine A2A receptors (Homo sapiens, UniProt P29274); assay: Adenosine receptor binding: binding affinities at hA2A receptors ([3H]CGS-21680 displacement); conditions: Table 1; [3H]CGS-21680 displacement, HEK-293 membranes; read-out: Binding Affinity hA2A-Ki
T4 construct: host or cells: HEK-293
Protocol: Adenosine Receptor Binding: Binding Affinities at hA2A Receptors
as §1, with “The resultant homogenate was kept for immediate use in the binding assay. Binding assays were performed in a total volume of 250 μL, containing [^3H]-CGS21680 (20.0 nM), membranes and additional drugs. Total” for “Total”, “using 300” for “using 10”, “μM CHA.” for “μM IB-MECA.”
To determine the free ligand concentration, three vials were counted with 25 μL of [^3H]CGS21680 containing 4 mL of Ultima-Gold MV scintillant on a Beckman LS6500 multi-purpose scintillation counter.
as §2, §3

T4 sequence (P29274 whole entry): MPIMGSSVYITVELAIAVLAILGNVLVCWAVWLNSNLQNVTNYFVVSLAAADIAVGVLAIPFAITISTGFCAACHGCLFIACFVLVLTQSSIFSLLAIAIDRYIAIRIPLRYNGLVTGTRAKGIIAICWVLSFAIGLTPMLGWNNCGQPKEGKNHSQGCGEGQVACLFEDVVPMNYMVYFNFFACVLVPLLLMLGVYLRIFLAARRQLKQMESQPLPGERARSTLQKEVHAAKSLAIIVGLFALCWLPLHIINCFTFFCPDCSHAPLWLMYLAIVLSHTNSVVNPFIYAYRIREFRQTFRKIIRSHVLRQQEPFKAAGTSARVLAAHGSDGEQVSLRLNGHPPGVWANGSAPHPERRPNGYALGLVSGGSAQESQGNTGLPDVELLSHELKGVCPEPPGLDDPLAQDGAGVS

Compound	Ki [1] [nM]	Binding Selectivity A3/A2a [1]	Ki (hA2B receptors) [nM]	Binding Selectivity A2b/A2a (hA2B receptors)	melting point [°C]	Ki [2] [nM]	Binding Selectivity A1/A2a [2]	Ki [4] [nM]	In Vivo activity HaloLMA MED [3] [mg/kg]
Cc1csc(-c2nc(N)nc3c2nnn3Cc2cccc(C3(O)CCCC3)n2)n1 [Example 27, 7-(4-methylthiazol-2-yl)-3-(6-[1-hydroxy-1-cyclopentyl]pyrid-2-ylmethyl)-3H-[1,2,3]triazolo[4,5-d]pyrimidin-5-amine]	7520	668	5740	510	–	1730	154	11.3	10
COCc1cccc(Cn2nnc3c(-c4nc(C)cs4)nc(N)nc32)n1 [Example 30, 7-(4-methylthiazol-2-yl)-3-(6-[methoxymethyl]pyrid-2-ylmethyl)-3H-[1,2,3]triazolo[4,5-d]pyrimidin-5-amine]	4600	965	2370	498	–	799	168	4.8	3
Cc1ccc(-c2nc(N)nc3c2nnn3Cc2cccc(COC(F)F)n2)o1 [Example 31, 7-(5-methylfuran-2-yl)-3-(6-[difluoromethyloxymethyl]-pyrid-2-ylmethyl)-3H-[1,2,3]triazolo[4,5-d]pyrimidin-5-amine]	–	–	–	–	194.8 to 195.1	–	–	–	1
Cc1ccc(-c2nc(N)nc3c2nnn3Cc2cccc(COCC(F)(F)F)n2)o1 [Example 37, 7-(5-methylfuran-2-yl)-3-(6-[2,2,2-trifluoroethyl]oxymethylpyrid-2-ylmethyl)-3H-[1,2,3]triazolo[4,5-d]pyrimidin-5-amine]	2490	560	2380	536	–	231	52	4.4	1

Now from value to compound, other results behind:

Ki [1] [nM]	Binding Selectivity A3/A2a [1]	Ki (hA2B receptors) [nM]	Binding Selectivity A2b/A2a (hA2B receptors)	melting point [°C]	Ki [2] [nM]	Binding Selectivity A1/A2a [2]	Ki [4] [nM]	Compound	In Vivo activity HaloLMA MED [3] [mg/kg]
2120	513	1890	457	168.7 to 168.9	164	40	4.1	Cc1ccc(-c2nc(N)nc3c2nnn3Cc2cccc(COCC3CCOC3)n2)o1 (racemic) [Example 34, 7-(5-methylfuran-2-yl)-3-(6-[tetrahydrofuran-3-ylmethyl]oxymethylpyrid-2-ylmethyl)-3H-[1,2,3]triazolo[4,5-d]pyrimidin-5-amine]	1
8170	2893	1000	354	–	270	96	2.8	COCc1cccc(Cn2nnc3c(-c4ccccc4)nc(N)nc32)n1 [Example 12, 7-phenyl-3-(6-[methoxymethyl]pyrid-2-ylmethyl)-3H-[1,2,3]triazolo[4,5-d]pyrimidin-5-amine]	10
613	102	437	73	–	498	83	6	COc1cccc(-c2nc(N)nc3c2nnn3Cc2cccc(C(C)(C)O)n2)c1 [Example 14, 7-(3-methoxyphenyl)-3-(6-[1-hydroxy-1-methylethyl]pyrid-2-ylmethyl)-3H-[1,2,3]triazolo[4,5-d]pyrimidin-5-amine]	30
–	634	1240	93	–	731	54	13.4	CC(C)(O)c1cccc(Cn2nnc3c(-c4cccc(C#N)c4)nc(N)nc32)n1 [Example 20, 7-(3-cyanophenyl)-3-(6-[1-hydroxy-1-methylethyl]pyrid-2-ylmethyl)-3H-[1,2,3]triazolo[4,5-d]pyrimidin-5-amine]	3
2500	545	2020	442	–	334	73	4.6	CCOCCOCc1cccc(Cn2nnc3c(-c4ccc(C)o4)nc(N)nc32)n1 [Example 32]	1
2180	303	1980	274	154.2 to 154.5	299	42	7.2	Cc1ccc(-c2nc(N)nc3c2nnn3Cc2cccc(COCC3CCCO3)n2)o1 (stereo not drawn) [Example 33, 745-methylfuran-2-yl-3-(6-[tetrahydrofuran-2-ylmethyl]oxymethylpyrid-2-ylmethyl)-3H-[1,2,3]triazolo[4,5-d]pyrimidin-5-amine]	3
